Measurements: EPA's CvTdb concentration-time database

Experiments:
Assay in all cases: concentration in plasma after dosing
[1] = test system: Rat; conditions: dosed: Dibromoacetic acid, 25 mg/kg, oral, Male, Harlan Sprague Dawley
[2] = test system: Rat; conditions: 40 min; dosed: Dibromoacetic acid; 10 mg/kg; iv; Male; F344
[3] = test system: Rat; conditions: 40 min; dosed: Dibromoacetic acid; 10 mg/kg; iv; Male; F344; remark: listed apart in the source
[4] = test system: Rat; conditions: dosed: Dibromoacetic acid, 25 mg/kg, oral, Male, Harlan Sprague Dawley; remark: listed apart in the source
[5] = test system: Rat; conditions: dosed: Dibromoacetic acid
[6] = test system: Rat; conditions: 5 min; dosed: Dibromoacetic acid; 25 mg/kg; oral; Male; Harlan Sprague Dawley
[7] = test system: Rat; conditions: dosed: Dibromoacetic acid, 110 mg/kg, iv, Female, Harlan Sprague-Dawley
[8] = test system: Rat; conditions: 5 min; dosed: Dibromoacetic acid; 25 mg/kg; oral; Male; Harlan Sprague Dawley; remark: listed apart in the source
[9] = test system: Rat; conditions: 5 min; dosed: Dibromoacetic acid; 25 mg/kg; oral; Male; Harlan Sprague Dawley; remark: listed apart in the source
[10] = test system: Rat; conditions: dosed: Dibromoacetic acid, 25 mg/kg, oral, Male, Harlan Sprague Dawley; remark: listed apart in the source
[11] = test system: Rat; conditions: dosed: Dibromoacetic acid, 110 mg/kg, iv, Female, Harlan Sprague-Dawley; remark: listed apart in the source
[12] = test system: Rat; conditions: dosed: Dibromoacetic acid, 10 mg/kg, iv, Male, F344
[13] = test system: Rat; conditions: dosed: Dibromoacetic acid, 25 mg/kg, oral, Male, Harlan Sprague Dawley; remark: listed apart in the source
[14] = test system: Rat; conditions: dosed: Dibromoacetic acid, 25 mg/kg, oral, Male, Harlan Sprague Dawley; remark: listed apart in the source
[15] = test system: Rat; conditions: 5 min; dosed: Dibromoacetic acid; 50 mg/kg; oral; Female; Harlan Sprague Dawley
[16] = test system: Rat; conditions: dosed: Dibromoacetic acid, 25 mg/kg, oral, Male, Harlan Sprague Dawley; remark: listed apart in the source
[17] = test system: Rat; conditions: dosed: Dibromoacetic acid, 25 mg/kg, oral, Female, Harlan Sprague Dawley
[18] = test system: Rat; conditions: dosed: Dibromoacetic acid, 25 mg/kg, oral, Male, Harlan Sprague Dawley; remark: listed apart in the source
[19] = test system: Rat; conditions: 5 min; dosed: Dibromoacetic acid; 25 mg/kg; oral; Male; Harlan Sprague Dawley; remark: listed apart in the source
[20] = test system: Rat; conditions: dosed: Dibromoacetic acid, 10 mg/kg, iv, Male, F344; remark: listed apart in the source
[21] = test system: Rat; conditions: 0.5 h; dosed: Dibromoacetic acid; 25 mg/kg; oral; Male; Harlan Sprague Dawley
[22] = test system: Rat; conditions: 20 min; dosed: Dibromoacetic acid; 10 mg/kg; iv; Male; F344
[23] = test system: Rat; conditions: dosed: Dibromoacetic acid, 110 mg/kg, iv, Female, Harlan Sprague-Dawley; remark: listed apart in the source
[24] = test system: Rat; conditions: 10 min; dosed: Dibromoacetic acid; 10 mg/kg; iv; Male; F344
[25] = test system: Rat; conditions: 5 min; dosed: Dibromoacetic acid; 25 mg/kg; oral; Male; Harlan Sprague Dawley; remark: listed apart in the source
[26] = test system: Rat; conditions: dosed: Dibromoacetic acid, 25 mg/kg, oral, Male, Harlan Sprague Dawley; remark: listed apart in the source
[27] = test system: Rat; conditions: dosed: Dibromoacetic acid, 10 mg/kg, iv, Male, F344; remark: listed apart in the source
[28] = test system: Rat; conditions: dosed: Dibromoacetic acid, 25 mg/kg, oral, Male, Harlan Sprague Dawley; remark: listed apart in the source
[29] = test system: Rat; conditions: 5 min; dosed: Dibromoacetic acid; 50 mg/kg; oral; Female; Harlan Sprague Dawley; remark: listed apart in the source
[30] = test system: Rat; conditions: dosed: Dibromoacetic acid, 25 mg/kg, oral, Male, Harlan Sprague Dawley; remark: listed apart in the source
[31] = test system: Rat; conditions: dosed: Dibromoacetic acid, 25 mg/kg, oral, Male, Harlan Sprague Dawley; remark: listed apart in the source
[32] = test system: Rat; conditions: dosed: Dibromoacetic acid, 25 mg/kg, oral, Male, Harlan Sprague Dawley; remark: listed apart in the source
[33] = test system: Rat; conditions: 0.5 h; dosed: Dibromoacetic acid; 25 mg/kg; oral; Male; Harlan Sprague Dawley; remark: listed apart in the source
[34] = test system: Rat; conditions: dosed: Dibromoacetic acid, 25 mg/kg, oral, Male, Harlan Sprague Dawley; remark: listed apart in the source
[35] = test system: Rat; conditions: 0.5 h; dosed: Dibromoacetic acid; 25 mg/kg; oral; Male; Harlan Sprague Dawley; remark: listed apart in the source
[36] = test system: Rat; conditions: dosed: Dibromoacetic acid, 25 mg/kg, oral, Male, Harlan Sprague Dawley; remark: listed apart in the source
[37] = test system: Rat; conditions: dosed: Dibromoacetic acid, 25 mg/kg, oral, Male, Harlan Sprague Dawley; remark: listed apart in the source
[38] = test system: Rat; conditions: 10 min; dosed: Dibromoacetic acid; 10 mg/kg; iv; Male; F344; remark: listed apart in the source
[39] = test system: Rat; conditions: dosed: Dibromoacetic acid, 50 mg/kg, oral, Female, Harlan Sprague Dawley
[40] = test system: Rat; conditions: 0.5 h; dosed: Dibromoacetic acid; 25 mg/kg; oral; Male; Harlan Sprague Dawley; remark: listed apart in the source
[41] = test system: Rat; conditions: dosed: Dibromoacetic acid, 25 mg/kg, oral, Male, Harlan Sprague Dawley; remark: listed apart in the source
[42] = test system: Rat; conditions: 20 min; dosed: Dibromoacetic acid; 10 mg/kg; iv; Male; F344; remark: listed apart in the source
[43] = test system: Rat; conditions: dosed: Dibromoacetic acid, 10 mg/kg, iv, Male, F344; remark: listed apart in the source
[44] = test system: Rat; conditions: dosed: Dibromoacetic acid, 25 mg/kg, oral, Female, Harlan Sprague Dawley; remark: listed apart in the source
[45] = test system: Rat; conditions: dosed: Dibromoacetic acid, 25 mg/kg, oral, Male, Harlan Sprague Dawley; remark: listed apart in the source

O=C(O)C(Br)Br [Dibromoacetic acid]
Conditions | concentration in plasma [µg/mL]
[1], 0.5 h | 15
[1], 6 h | 0.466
[4], 1.5 h | 1.56
[4], 20 min | 24.2
[7], 1.5 h | 17.6
[7], 2 h | 5.37
[10], 1.5 h | 1.55
[10], 20 min | 13.5
[11], 1.5 h | 20.9
[11], 3 h | 0.472
[12], 1.25 h | 0.101
[12], 5 min | 14.5
[13], 0.75 h | 6.41
[13], 4 h | 0.772
[14], 3 h | 0.646
[14], 10 min | 5.77
[16], 3 h | 1.72
[16], 10 min | 0.853
[17], 1 h | 8.12
[17], 2 h | 0.887
[18], 0.75 h | 10.2
[18], 4 h | 1.54
[20], 1 h | 0.208
[20], 2 min | 28.1
[23], 2 h | 4.66
[23], 3 h | 0.459
[26], 1.5 h | 3.34
[26], 20 min | 10.7
[27], 1.25 h | 0.301
[27], 5 min | 12
[28], 1.5 h | 1.46
[28], 20 min | 13.2
[30], 3 h | 0.476
[30], 10 min | 6.89
[31], 0.75 h | 8.79
[31], 4 h | 0.592
[32], 0.75 h | 10.3
[32], 4 h | 0.771
[34], 1.5 h | 2.03
[34], 20 min | 20.9
[36], 1 h | 8.77
[36], 2 h | 1.77
[37], 3 h | 1.62
[37], 10 min | 1.88
[39], 3 h | 2.05
[39], 10 min | 9.97
[41], 3 h | 0.129
[41], 10 min | 12.1
[43], 1 h | 0.186
[43], 2 min | 28.8
[44], 1 h | 8.86
[44], 2 h | 1.24
[45], 1 h | 8.05
[45], 2 h | 1.28

Conditions | concentration in plasma [µg/mL]
[2] | 0.498
[3] | 0.607
[6] | 1.63
[8] | 3.39
[9] | 2.21
[15] | 4.03
[19] | 0.294
[21] | 13.5
[22] | 1.89
[24] | 7.19
[25] | 0.238
[29] | 2.8
[33] | 12.6
[35] | 7.63
[38] | 6.23
[40] | 8.9
[42] | 2.54

concentration in plasma [µg/mL], [5]
Conditions | Female | Male
0.5 h, 25 mg/kg, oral, Harlan Sprague Dawley | – | 10.8
0.75 h, 25 mg/kg, oral, Harlan Sprague Dawley | 8.91 | 11.5
1 h, 10 mg/kg, iv, F344 | – | 0.262
1 h, 25 mg/kg, oral, Harlan Sprague Dawley | 6.86 | 8.31
1.25 h, 10 mg/kg, iv, F344 | – | 0.0971
1.5 h, 10 mg/kg, iv, F344 | – | 0.175
1.5 h, 25 mg/kg, oral, Harlan Sprague Dawley | – | 2
1.5 h, 110 mg/kg, iv, Harlan Sprague-Dawley | 21.6 | –
2 h, 25 mg/kg, oral, Harlan Sprague Dawley | 1.46 | 1.85
2 h, 110 mg/kg, iv, Harlan Sprague-Dawley | 4.71 | –
2 min, 10 mg/kg, iv, F344 | – | 31.1
3 h, 25 mg/kg, oral, Harlan Sprague Dawley | – | 0.751
3 h, 50 mg/kg, oral, Harlan Sprague Dawley | 1.93 | –
3 h, 110 mg/kg, iv, Harlan Sprague-Dawley | 0.405 | –
4 h, 25 mg/kg, oral, Harlan Sprague Dawley | 0.967 | 0.106
5 min, 10 mg/kg, iv, F344 | – | 11.5
5 min, 25 mg/kg, oral, Harlan Sprague Dawley | – | 0.411
5 min, 50 mg/kg, oral, Harlan Sprague Dawley | 8.05 | –
6 h, 25 mg/kg, oral, Harlan Sprague Dawley | – | 0.109
10 min, 10 mg/kg, iv, F344 | – | 5.23
10 min, 25 mg/kg, oral, Harlan Sprague Dawley | – | 4.01
10 min, 50 mg/kg, oral, Harlan Sprague Dawley | 13.5 | –
20 min, 10 mg/kg, iv, F344 | – | 2.81
20 min, 25 mg/kg, oral, Harlan Sprague Dawley | – | 17.2
40 min, 10 mg/kg, iv, F344 | – | 0.544
